# Measured values: US7576241B2, “Derivatives of amidines, their preparation, their use as medicaments and the pharmaceutical compositions containing them” (Ipsen Pharma S.A.S., priority 1998, dated 2009)
row,Structure (SMILES),melting point
1,"NC(=Nc1ccc(CCNC(=O)/C=C/c2ccccc2O)cc1)c1cccs1 [Example 39, (E)-N-(4-{[amino(2-thienyl)methylidene]amino}phenethyl)-3-(2-hydroxyphenyl)-2-propenamide]",145 to 155 °C
2,"COc1cc(/C=C/C(=O)NCCc2ccc(N=C(N)c3cccs3)cc2)cc(OC)c1O [Example 42, (E)-N-(4-{[amino(2-thienyl)methylidene]amino}phenethyl)-3-(4-hydroxy-3,5-dimethoxyphenyl)-2-propenamide]",196.4 to 197.6 °C
3,"CC(=O)Nc1ccc(CNCCc2ccc(N=C(N)c3cccs3)cc2)cc1 [Example 58, N-(4-{[(4-{[amino(2-thienyl)methylidene]amino}phenethyl)-amino]methyl}phenyl)acetamide]",237.8 to 239 °C
4,"NC(=Nc1ccc(CCNCc2ccc3cccc(O)c3n2)cc1)c1cccs1 [Example 59, N′-[4-(2-{[(8-hydroxy-2-quinolinyl)methyl]amino}ethyl)phenyl]-2-thiophenecarboximidamide]",> 230 °C
5,"I.NC(=Nc1ccc(CCNCC=Cc2ccccc2)cc1)c1cccs1 [Example 60, N′-[4-(2-{[3-phenyl-2-propenyl]amino}ethyl)phenyl]-2-thiophenecarboximidamide hydroiodide]",151 to 153 °C
6,"COc1cc(C=CCNCCc2ccc(N=C(N)c3cccs3)cc2)ccc1O.O=C(O)/C=C/C(=O)O.O=C(O)/C=C/C(=O)O [Example 61, N′-[4-(2-{[3-(4-hydroxy-3-methoxyphenyl)-2-propenyl]amino}ethyl)phenyl]-2-thiophenecarboximidamide difumarate]",174 to 176 °C
7,"COc1cc(C=CCNCCc2ccc(N=C(N)c3cccs3)cc2)cc(OC)c1O.Cl.Cl [Example 62, N′-[4-(2-{[3-(4-hydroxy-3,5-dimethoxyphenyl)-2-propenyl]amino}ethyl)phenyl]-2-thiophenecarboximidamide dihydrochloride]",182 to 184 °C
8,"COc1cc(O)c(CNCCc2ccc(N=C(N)c3cccs3)cc2)c(OC)c1 [Example 64, N′-(4-{2-[(2-hydroxy-4,6-dimethoxybenzyl)amino]ethyl}phenyl)-2-thiophenecarboximidamide]",> 230 °C
